target: SOS1/KRAS WT (Homo sapiens (Human), UniProt Q07889); assay: SOS1/KRAS WT HTRF binding assay (FRET-based protein-protein interaction); settings: inhibition of His6-SOS1 (aa564-1049, 40 nM) binding to GST-KRAS-WT (aa1-188, 40 nM); at least two independent replicates; read-out: SOS1/KRAS WT HTRF Binding assay pIC50 (converted)
Method in brief: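 GST-KRAS WT (aa1-188, 40 nM) and His6-SOS1 exchange domain (aa564-1049, 40 nM) were incubated 60 min at room temperature with compound dose response in HEPES pH7.3 buffer with 10 mM EDTA and 100 mM KF. Anti-GST-Eu(K)/anti-6His-XL665 HTRF was read after 4 hr, and IC50 came from a four-parameter fit (≥2 replicates).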

Sequence of SOS1/KRAS WT (Q07889 564-1049): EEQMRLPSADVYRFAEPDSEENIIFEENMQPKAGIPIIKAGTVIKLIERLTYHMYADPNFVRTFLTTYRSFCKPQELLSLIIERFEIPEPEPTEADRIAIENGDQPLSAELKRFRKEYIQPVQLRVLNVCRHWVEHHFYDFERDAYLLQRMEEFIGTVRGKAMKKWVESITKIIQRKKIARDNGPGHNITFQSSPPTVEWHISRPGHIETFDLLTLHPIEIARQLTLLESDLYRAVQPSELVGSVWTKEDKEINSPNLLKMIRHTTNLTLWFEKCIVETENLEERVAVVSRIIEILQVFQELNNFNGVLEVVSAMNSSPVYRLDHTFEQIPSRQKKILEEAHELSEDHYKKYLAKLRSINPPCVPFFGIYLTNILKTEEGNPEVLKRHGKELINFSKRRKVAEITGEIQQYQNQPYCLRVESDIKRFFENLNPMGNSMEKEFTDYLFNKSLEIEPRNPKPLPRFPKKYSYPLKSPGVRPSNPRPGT

| Structure (SMILES) | IC50 [nM] |
| --- | --- |
| Cc1nnc(N[C@H](C)c2cccc(C(F)(F)CO)c2)c2cc3c(cc12)C1(CCOCC1)C(=O)N3C1CC1 [Compound 112, 1-cyclopropyl-5-methyl-8-[[(1R)-1-[3-(1,1-difluoro-2-hydroxy-ethyl)phenyl]ethyl]amino]spiro [pyrrolo[2,3-g]phthalazine-3,4′-tetrahydropyran]-2-one] | 11 |
| COCC1(C)C(=O)N(C)c2cc3c(N[C@H](C)c4cccc(C(F)(F)C(C)(C)O)c4C)nnc(C)c3cc21 (stereo partly drawn) [Compound 113, 8-[[(1R)-1-[3-(1,1-difluoro-2-hydroxy-2-methyl-propyl)-2-methyl-phenyl]ethyl]amino]-3-(methoxymethyl)-1,3,5-trimethyl-pyrrolo[3,2-g]phthalazin-2-one] | 13.5 |
| Cc1nnc(N[C@H](C)c2cccc(C(F)(F)CO)c2F)c2cc3c(cc12)C1(CCOCC1)C(=O)N3C1CC1 [Compound 114, 1-cyclopropyl-5-methyl-8-[[(1R)-1-[3-(1,1-difluoro-2-hydroxy-ethyl)-2-fluoro-phenyl]ethyl]amino]spiro[pyrrolo [2,3-g]phthalazine-3,4′-tetrahydropyran]-2-one] | 9.12 |
| Cc1nnc(N[C@H](C)c2cccc(C(F)(F)C(C)(C)O)c2F)c2cc3c(cc12)N(C)C(=O)C31CCOCC1 [Compound 115, 1,8-dimethyl-5-[[(1R)-1-[3-(1,1-difluoro-2-hydroxy-2-methyl-propyl)-2-fluoro-phenyl]ethyl]amino]spiro[pyrrolo[3,2-g]phthalazine-3,4′-tetrahydropyran]-2-one] | 6.61 |
| Cc1nnc(N[C@H](C)c2cccc(C(F)(F)CO)c2F)c2cc3c(cc12)N(C)C(=O)C31CCOCC1 [Compound 116, 1,8-dimethyl-5-[[(1R)-1-[3-(1,1-difluoro-2-hydroxy-ethyl)-2-fluoro-phenyl]ethyl]amino]spiro[pyrrolo [3,2-g]phthalazine-3,4′-tetrahydropyran]-2-one] | 6.61 |
| COC1(C)C(=O)N(C2CC2)c2cc3c(N[C@H](C)c4cccc(C(F)(F)C(C)(C)O)c4)nnc(C)c3cc21 (stereo partly drawn) [Compound 117, 1-cyclopropyl-3-methoxy-3,5-dimethyl-8-[[(1R)-1-[3-(1,1-difluoro-2-hydroxy-2-methyl-propyl)phenyl]ethyl]amino]pyrrolo [2,3-g]phthalazin-2-one] | 9.55 |
| Cc1nnc(N[C@H](C)c2cccc(C(F)(F)CN)c2F)c2cc3c(cc12)C(C)(C)C(=O)N3C [Compound 118, 1,3,3,5-tetramethyl-8-[[(1R)-1-[3-(2-amino-1,1-difluoro-ethyl)-2-fluoro-phenyl]ethyl]amino]pyrrolo[2,3-g]phthalazin-2-one] | 11.5 |
| Cc1c([C@@H](C)Nc2nnc(C)c3cc4c(cc23)N(C2CC2)C(=O)C42CCOCC2)cccc1C(F)(F)CO [Compound 119, 1-cyclopropyl-5-methyl-8-[[(1R)-1-[3-(1,1-difluoro-2-hydroxy-ethyl)-2-methyl-phenyl]ethyl]amino]spiro[pyrrolo [2,3-g]phthalazine-3,4′-tetrahydropyran]-2-one] | 7.41 |
| Cc1nnc(N[C@H](C)c2cccc(C(F)(F)C(C)(C)O)c2)c2cc3c(cc12)C1(CCOCC1)C(=O)N3C1CC1 [Compound 120, 1-cyclopropyl-5-methyl-8-[[(1R)-1-[3-(1,1-difluoro-2-hydroxy-2-methyl-propyl)phenyl]ethyl]amino]spiro [pyrrolo[2,3-g]phthalazine-3,4′-tetrahydropyran]-2-one] | 10.5 |
| Cc1nnc(N[C@H](C)c2cccc(C(F)(F)C(C)(C)O)c2F)c2cc3c(cc12)C1(CCOCC1)C(=O)N3C1CC1 [Compound 121, 1-cyclopropyl-5-methyl-8-[[(1R)-1-[3-(1,1-difluoro-2-hydroxy-2-methyl-propyl)-2-fluoro-phenyl]ethyl]amino]spiro[pyrrolo [2,3-g]phthalazine-3,4′-tetrahydropyran]-2-one] | 6.31 |
| COC1(C)C(=O)N(C2CC2)c2cc3c(N[C@H](C)c4cccc(C(F)(F)CO)c4F)nnc(C)c3cc21 (stereo partly drawn) [Compound 122, 1-cyclopropyl-3-methoxy-3,5-dimethyl-8-[[(1R)-1-[3-(1,1-difluoro-2-hydroxy-ethyl)-2-fluoro-phenyl]ethyl]amino]pyrrolo[2,3-g]phthalazin-2-one] | 5.75 |
| Cc1nnc(N[C@H](C)c2cccc(C(F)(F)CO)c2F)c2cc3c(cc12)C(C)(C)C(=O)N3C1CC1 [Compound 123, 1-cyclopropyl-3,3,5-trimethyl-8-[[(1R)-1-[3-(1,1-difluoro-2-hydroxy-ethyl)-2-fluoro-phenyl]ethyl]amino]pyrrolo[2,3-g]phthalazin-2-one] | 8.71 |
| Cc1c([C@@H](C)Nc2nnc(C)c3cc4c(cc23)N(C(C)C)C(=O)C4(C)C)cccc1C(F)(F)C(C)(C)O [Compound 124, 1-isopropyl-3,3,5-trimethyl-8-[[(1R)-1-[3-(1,1-difluoro-2-hydroxy-2-methyl-propyl)-2-methyl-phenyl]ethyl]amino]pyrrolo[2,3-g]phthalazin-2-one] | 6.17 |
| Cc1nnc(N[C@H](C)c2cccc(C(F)(F)C(C)(C)O)c2)c2cc3c(cc12)N(C)C(=O)C31CCOCC1 [Compound 125, 1,8-dimethyl-5-[[(1R)-1-[3-(1,1-difluoro-2-hydroxy-2-methyl-propyl)phenyl]ethyl]amino]spiro [pyrrolo[3,2-g]phthalazine-3,4′-tetrahydropyran]-2-one] | 6.61 |
| CCOC1(C)C(=O)N(C)c2cc3c(N[C@H](C)c4cccc(C(F)(F)C(C)(C)O)c4C)nnc(C)c3cc21 (stereo partly drawn) [Compound 126, 3-ethoxy-1,3,5-trimethyl-8-[[(1R)-1-[3-(1,1-difluoro-2-hydroxy-2-methyl-propyl)-2-methyl-phenyl]ethyl]amino]pyrrolo[2,3-g]phthalazin-2-one] | 9.12 |
| Cc1c([C@@H](C)Nc2nnc(C)c3cc4c(cc23)N(C2CC2)C(=O)C4(C)C)cccc1C(F)(F)C(C)(C)O [Compound 127, 1-cyclopropyl-3,3,5-trimethyl-8-[[(1R)-1-[3-(1,1-difluoro-2-hydroxy-2-methyl-propyl)-2-methyl-phenyl]ethyl]amino]pyrrolo[2,3-g]phthalazin-2-one] | 12.9 |

Further lines, results first:

| IC50 [nM] | Structure (SMILES) |
| --- | --- |
| 6.31 | Cc1nnc(N[C@H](C)c2cccc(C(F)(F)CO)c2)c2cc3c(cc12)N(C)C(=O)C31CCOCC1 [Compound 128, 1,8-dimethyl-5-[[(1R)-1-[3-(1,1-difluoro-2-hydroxy-ethyl)phenyl]ethyl]amino]spiro [pyrrolo[3,2-g]phthalazine-3,4′-tetrahydropyran]-2-one] |
| 6.61 | Cc1c([C@@H](C)Nc2nnc(C)c3cc4c(cc23)C2(CCOCC2)C(=O)N4C)cccc1C(F)(F)CO [Compound 129, 1,8-dimethyl-5-[[(1R)-1-[3-(1,1-difluoro-2-hydroxy-ethyl)-2-methyl-phenyl]ethyl]amino]spiro[pyrrolo [3,2-g]phthalazine-3,4′-tetrahydropyran]-2-one] |
| 7.94 | Cc1c([C@@H](C)Nc2nnc(C)c3cc4c(cc23)C2(CCOCC2)C(=O)N4C)cccc1C(F)(F)C(C)(C)O [Compound 131, 1,8-dimethyl-5-[[(1R)-1-[3-(1,1-difluoro-2-hydroxy-2-methyl-propyl)-2-methyl-phenyl]ethyl]amino]spiro[pyrrolo [3,2-g]phthalazine-3,4′-tetrahydropyran]-2-one] |
| 7.94 | CCOC1(C)C(=O)N(C)c2cc3c(N[C@H](C)c4cccc(C(F)(F)C(C)(C)O)c4F)nnc(C)c3cc21 (stereo partly drawn) [Compound 132, 3-ethoxy-1,3,5-trimethyl-8-[[(1R)-1-[3-(1,1-difluoro-2-hydroxy-2-methyl-propyl)-2-fluoro-phenyl]ethyl]amino]pyrrolo[2,3-g]phthalazin-2-one] |
| 8.51 | CCOC1(C)C(=O)N(C)c2cc3c(N[C@H](C)c4cccc(C(F)(F)CO)c4)nnc(C)c3cc21 (stereo partly drawn) [Compound 133, 3-ethoxy-1,3,5-trimethyl-8-[[(1R)-1-[3-(1,1-difluoro-2-hydroxy-ethyl)phenyl]ethyl]amino]pyrrolo [2,3-g]phthalazin-2-one] |
| 6.17 | CCOC1(C)C(=O)N(C)c2cc3c(N[C@H](C)c4cccc(C(F)(F)CO)c4C)nnc(C)c3cc21 (stereo partly drawn) [Compound 134, 3-ethoxy-1,3,5-trimethyl-8-[[(1R)-1-[3-(1,1-difluoro-2-hydroxy-ethyl)-2-methyl-phenyl]ethyl]amino]pyrrolo[2,3-g]phthalazin-2-one] |
| 10 | CCOC1(C)C(=O)N(C)c2cc3c(N[C@H](C)c4cccc(C(F)(F)CO)c4F)nnc(C)c3cc21 (stereo partly drawn) [Compound 135, 3-ethoxy-1,3,5-trimethyl-8-[[(1R)-1-[3-(1,1-difluoro-2-hydroxy-ethyl)-2-fluoro-phenyl]ethyl]amino]pyrrolo[2,3-g]phthalazin-2-one] |
| 14.1 | COCC1(C)C(=O)N(C2CC2)c2cc3c(N[C@H](C)c4cccc(C(F)(F)C(C)(C)O)c4F)nnc(C)c3cc21 (stereo partly drawn) [Compound 136, 1-cyclopropyl-8-[[(1R)-1-[3-(1,1-difluoro-2-hydroxy-2-methyl-propyl)-2-fluoro-phenyl]ethyl]amino]-3-(methoxymethyl)-3,5-dimethyl-pyrrolo[3,2-g]phthalazin-2-one] |
| 15.8 | COCC1(C)C(=O)N(C2CC2)c2cc3c(N[C@H](C)c4cccc(C(F)(F)C(C)(C)O)c4C)nnc(C)c3cc21 (stereo partly drawn) [Compound 137, 1-cyclopropyl-8-[[(1R)-1-[3-(1,1-difluoro-2-hydroxy-2-methyl-propyl)-2-methyl-phenyl]ethyl]amino]-3-(methoxymethyl)-3,5-dimethyl-pyrrolo[3,2-g]phthalazin-2-one] |
| 6.61 | COCC1(C)C(=O)N(C2CC2)c2cc3c(N[C@H](C)c4cccc(C(F)(F)CO)c4F)nnc(C)c3cc21 (stereo partly drawn) [Compound 138, 1-cyclopropyl-8-[[(1R)-1-[3-(1,1-difluoro-2-hydroxy-ethyl)-2-fluoro-phenyl]ethyl]amino]-3-(methoxymethyl)-3,5-dimethyl-pyrrolo[3,2-g]phthalazin-2-one] |

Source: patent US20250197407A1 (Jazz Pharmaceuticals Ireland Limited, priority 2022, published 2025)
